Results as given in patent publication EP4647433A1, “SHP2 INHIBITOR AND USES THEREOF” (Kanaph Therapeutics Inc., priority 2023, dated 2024).

Experiments:
[1] = Brain-plasma Pharmacokinetics; details: mouse, 20 mg/kg
Experimental: Nine male CD-1 mice (ICR mouse) aged 6 to 9 weeks were treated with the compounds according to the Examples at a concentration of 20 mg/kg. 0.025 mL of blood and brain tissue were collected at 1 hour, 8 hours, and 24 hours post-treatment, respectively. The collected blood was placed in an EDTA-K2 tube, centrifuged at 4°C at 3,200 x g for 10 minutes, and the supernatant plasma was collected. The brain tissue samples were collected immediately after euthanizing the CD-1 mice after blood collection and performing cardiac perfusion with cold saline. After collection, the brain tissues were washed with cold saline, wiped and dried, weighed, and homogenized using a homogenization buffer (15 mM PBS (pH 7.4): MeOH = 2:1) at a ratio of 1:3 (1 g of tissue to 3 mL of buffer, dilution ratio 4). Plasma and homogenized brain tissue samples were each transferred to a polypropylene microcentrifuge tube and stored at -60°C or lower. The concentration of compounds distributed in plasma and brain tissue was analyzed using LC-MS/MS, and the distribution in brain tissue compared to plasma was calculated as follows. Brain-to-plasma ratio = AUC(0-t) brain tissue /AUC(0-t) plasma [formula]
In the Brain-plasma Pharmacokinetics assay, when a brain-to-plasma ratio value was 0.05 or more and less than 0.1, + was indicated, when a brain-to-plasma ratio value was 0.1 or more and less than 0.25, ++ was indicated, and when a brain-to-plasma ratio value was more than 0.25, +++ was indicated.

[2] = test system: H358 cells; experiment: Cell viability (3D spheroid, 3D CellTiter-Glo); format: cell-based; details: Homo sapiens, NCI-H358, 120 h; H358 spheroids, 5 days treatment
Experimental: Human non-small cell lung cancer cell line H358 cells were purchased from the Korean Cell Line Bank. Cancer cell lines were cultured in the recommended RPMI-1640 medium supplemented with 10% fetal bovine serum (FBS) and 1% penicillin/streptomycin. Monolayer-cultured cancer cell lines were detached by treatment with Trypsin/EDTA, and 100 µL of cell suspension containing 4 x 10^3 cells was each dispensed into SPL3D™ Cell Floater, 96-well round plate, through cell line counting. After culturing for 72 hours to form spheroid, the cells were individually treated with the compounds according to the Examples, which had been serially diluted (minimum 1.5 nM, maximum 10 µM in concentration), and then cultured in a cell incubator for 5 days. To analyze cell viability, the cells were treated with 50 uL of 3D CellTiter-Glo, stirred for 5 minutes at 500 rpm in a plate shaker from Thermo Fisher Scientific, and incubated for 25 minutes at room temperature. Then, the luminescent values were measured using a Varioskan equipment from Thermo Fisher Scientific. IC50 values were obtained using GraphPad's Prism from the measured values depending on the concentration.
In the cell viability assay, when an IC50 value was 50 nM or more, + was indicated, when an IC50 value was 10 nM or more and less than 50 nM, ++ was indicated, and when an IC50 value was less than 10 nM, +++ was indicated.

[3] = target: T1, SHP2 (Homo sapiens, UniProt Q06124); experiment: Phosphatase assay (PTPase assay, DiFMUP substrate); format: biochemical; details: full length SHP2 100 pM activated with SHP2 activating peptide, DiFMUP 80 µM, 2 hours; read-out: PTPase assay (IC50)
T1 construct: SHP2 (full length, diluted to 100 pM final concentration in reaction buffer, BPS bioscience, US); purchased BPS bioscience, US
T1 sequence (Q06124 1-593): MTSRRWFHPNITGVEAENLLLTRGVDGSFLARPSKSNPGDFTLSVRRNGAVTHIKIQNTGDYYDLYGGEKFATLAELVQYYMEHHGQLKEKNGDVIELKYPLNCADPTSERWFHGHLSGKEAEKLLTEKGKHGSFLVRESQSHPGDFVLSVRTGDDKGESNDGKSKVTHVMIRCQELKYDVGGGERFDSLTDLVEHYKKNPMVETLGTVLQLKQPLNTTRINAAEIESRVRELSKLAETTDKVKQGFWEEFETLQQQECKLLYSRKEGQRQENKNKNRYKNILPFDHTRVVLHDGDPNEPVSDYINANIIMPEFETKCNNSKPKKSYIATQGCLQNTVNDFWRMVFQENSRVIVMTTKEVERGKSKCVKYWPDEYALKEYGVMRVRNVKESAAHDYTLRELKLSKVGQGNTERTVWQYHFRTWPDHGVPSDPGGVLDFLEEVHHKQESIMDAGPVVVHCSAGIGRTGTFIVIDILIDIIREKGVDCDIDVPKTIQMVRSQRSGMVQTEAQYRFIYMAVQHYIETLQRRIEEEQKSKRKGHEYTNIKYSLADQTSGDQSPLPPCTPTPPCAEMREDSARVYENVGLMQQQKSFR
Experimental: IC50 values were measured using 6,8-difluoro-4-methylumbelliferyl phosphate (DiFMUP) as a substrate. The reaction was performed in a 384-well plate, and fluorescence measurement values were obtained using an EnVision plate reader from PerkinElmer.
SHP2 (full length, diluted to 100 pM final concentration in reaction buffer, BPS bioscience, US) was incubated with the SHP2 activating peptide in reaction buffer (60 mM HEPES (pH 7.2), 75 mM NaCl, 75 mM KCl, 1 mM EDTA, 5 mM DTT, 0.05% P-20) for 30 minutes to activate SHP2. After activation, DMSO [1% (V/V) or the compound according to the Examples (concentration ranging from 0.6 nM to 10 µM)] was added. As a positive control group, the selective SHP2 inhibitors SHP099 (6-(4-amino-4-methylpiperidin-1-yl)-3-(2,3-dichlorophenyl)pyrazin-2-amine, FOCUS bioscience, Austrailia; concentration ranging from 0.6 nM to 10 µM) and TNO155 ((3S,4S)-8-(6-amino-5-((2-amino-3-chloropyridin-4-yl)thio)pyrazin-2-yl)-3-methyl-2-oxa-8-azaspiro[4.5]decan-4-amine, Chemietek, US; concentration ranging from 0.6 nM to 10 µM) were used. [drawing 184]
DiFMUP (80 µM) was added to the reaction and incubated for a total of 2 hours to allow for the reaction to proceed. Thereafter, fluorescence (340 nm excitation, 450 nm emission) values were measured. IC50 values were obtained using Graphad's Prism from the measured values depending on the concentration.
In the phosphatase assay (PTPase assay), when an IC50 value was 100 nM or more, + was indicated, when an IC50 value was 3 nM or more and less than 100 nM, ++ was indicated, and when an IC50 value was less than 3 nM, +++ was indicated.

[4] = test system: phospho-ERK; experiment: phospho-ERK assay (AlphaLisa) in H358 cells; format: cell-based; details: Homo sapiens, NCI-H358, 1.5 hours incubation, read-out: pERK assay (IC50)
Experimental: H358 [20,000 cell/well] was contained in 40 µL of the cell culture solution (RPMI, 10% FBS, penicillin, streptomycin) and placed on a 384-well plate. After 24 hours, the serially diluted compound according to the Examples (concentration of minimum 0.13 nM, maximum 10 µM) was contained in 10 µL of the cell culture solution, put into wells containing cells, and incubated in a cell incubator for 1.5 hours. As a positive control group, the selective SHP2 inhibitor, TNO155 (Chemietek, US; concentration ranging from 0.13 nM to 10 µM) was used.
Thereafter, phospho-ERK was labeled using an AlphaLisa system from PerkinElmer according to the manufacturer's instructions, and then fluorescence (680 nm excitation wavelength, 615 nm emission wavelength) values were measured using a Varioskan equipment from Thermo. IC50 values were obtained using Graphad's Prism from the measured values depending on the concentration.
Intracellular SHP2 activity can be confirmed by measuring the degree of phosphorylation of ERK (extracellular signal regulated kinase), which represents Ras/Raf/ERK, a downstream signal pathway of SHP2. Inhibition of ERK phosphorylation by SHP2 inhibitors was confirmed through phospho-ERK analysis, which confirmed that the SHP2 inhibitors of the present disclosure have excellent activity in inhibiting ERK phosphorylation mediated by SHP2.

SMILES	Kp at 24 h ([1]; brain)	IC50 [2] [nM]	IC50 [3] [nM]	IC50 [4] [nM]	Kp at 24 h ([1]; male, CD-1 (ICR), brain/plasma)
Cn1cnc2ccc(Sc3cnc(N4CCC5(CC4)Cc4ccccc4[C@H]5N)cn3)c(Cl)c2c1=O [Example 7, (S)-6-((5-(1-amino-1,3-dihydrospiro[indene-2,4'-piperidin]-1'-yl)pyrazin-2-yl)thio)-5-chloro-3-methylquinazolin-4(3H)-one]	0.1 to 0.25	< 10	< 3	< 45	–
COC(C)(C)Cn1cnc2ccc(Sc3cnc(N4CCC5(CC4)CO[C@@H](C)[C@H]5N)cn3)c(Cl)c2c1=O [Example 18, 6-((5-((3S,4S)-4-amino-3-methyl-2-oxa-8-azaspiro[4.5]decan-8-yl)pyrazin-2-yl)thio)-5-chloro-3-(2-methoxy-2-methylpropyl)quinazolin-4(3H)-one]	–	< 10	< 3	< 45	> 0.25
CC(C)(O)Cn1cnc2ccc(Sc3cnc(N4CCC5(CC4)Cc4ccccc4[C@H]5N)cn3)c(Cl)c2c1=O [Example 25, (S)-6-((5-(1-amino-1,3-dihydrospiro[indene-2,4'-piperidin]-1'-yl)pyrazin-2-yl)thio)-5-chloro-3-(2-hydroxy-2-methylpropyl)quinazolin-4(3H)-one]	–	< 10	< 3	< 45	0.05 to 0.1
COC(C)(C)Cn1cnc2ccc(Sc3cnc(N4CCC5(CC4)Cc4ccccc4[C@H]5N)cn3)c(Cl)c2c1=O [Example 27, (S)-6-((5-(1-amino-1,3-dihydrospiro[indene-2,4'-piperidin]-1'-yl)pyrazin-2-yl)thio)-5-chloro-3-(2-methoxy-2-methylpropyl)quinazolin-4(3H)-one]	–	< 10	< 3	< 45	> 0.25
COC(C)(C)Cn1cnc2ccc(Sc3cnc(N4CCC5(CC4)Cc4ccccc4[C@H]5N)cn3)cc2c1=O [Example 29, (S)-6-((5-(1-amino-1,3-dihydrospiro[indene-2,4'-piperidin]-1'-yl)pyrazin-2-yl)thio)-3-(2-methoxy-2-methylpropyl)quinazolin-4(3H)-one]	–	< 10	3 to 100	45 to 1500	> 0.25
COC(C)(C)Cn1cnc2ccc(Sc3cnc(N4CCC5(CC4)Cc4ncsc4[C@H]5N)cn3)c(Cl)c2c1=O [Example 32, (S)-6-((5-(6-amino-4,6-dihydrospiro[cyclopenta[d]thiazole-5,4'-piperidin]-1'-yl)pyrazin-2-yl)thio)-5-chloro-3-(2-methoxy-2-methylpropyl)quinazolin-4(3H)-one]	–	< 10	–	< 45	0.1 to 0.25
COC(C)(C)Cn1cnc2ccc(Sc3nc(CO)c(N4CCC5(CC4)Cc4ccccc4[C@H]5N)nc3C)c(Cl)c2c1=O [Example 35, (S)-6-((5-(1-amino-1,3-dihydrospiro[indene-2,4'-piperidin]-1'-yl)-6-(hydroxymethyl)-3-methylpyrazin-2-yl)thio)-5-chloro-3-(2-methoxy-2-methylpropyl)quinazolin-4(3H)-one]	–	< 10	< 3	45 to 1500	0.1 to 0.25
COC(C)(C)Cn1cnc2ccc(Sc3ncc(N4CCC5(CC4)Cc4ccccc4[C@H]5N)nc3N)c(Cl)c2c1=O [Example 36, (S)-6-((3-amino-5-(1-amino-1,3-dihydrospiro[indene-2,4'-piperidin]-1'-yl)pyrazin-2-yl)thio)-5-chloro-3-(2-methoxy-2-methylpropyl)quinazolin-4(3H)-one]	–	< 10	< 3	< 45	0.05 to 0.1
COC(C)(C)Cn1cnc2ccc(Sc3ncc(N4CCC5(CC4)CO[C@@H](C)[C@H]5N)nc3N)c(Cl)c2c1=O [Example 37, 6-((3-amino-5-((3S,4S)-4-amino-3-methyl-2-oxa-8-azaspiro[4.5]decan-8-yl)pyrazin-2-yl)thio)-5-chloro-3-(2-methoxy-2-methylpropyl)quinazolin-4(3H)-one]	–	10 to 50	3 to 100	45 to 1500	0.05 to 0.1
